Results on 17 compounds are retold here after patent US7456187B2, “Furanopyrimidine compounds as potassium ion channel inhibitors” (Xention Limited, priority 2004, dated 2008).

As usually defined, the inhibition is the drop in the measured response relative to a control, in per cent. As usually defined, the melting point is the temperature of the solid-liquid transition.

The target of one data set is T1, human Kv1.5 (Homo sapiens, UniProt P22460).
T1 construct: expressed in transfected cells
As to the kind of experiment: Kv1.5 Autopatch Electrophysiology (whole cell patch-clamp). Format: cell-based. The following applies: compound at 1 μM; cells stably transfected with human Kv1.5; room temperature (22-24° C.); voltage step to 0 mV for 1000 ms from -80 mV, total charge. How it is done: Cells stably transfected with cDNA for human Kv1.5 (in pEF6::VA-His-TOPO) were grown in Dulbecco's Modified Eagle media (DMEM) alpha supplemented with 10% Fetal Calf Serum (FCS), 20 μl/ml penicillin (5000 U/ml) streptomycin (5000 μg/ml), 10 μl/ml [100×] glutamine, and blasticidin (7.5 μg/ml).
The external bathing solution contained (in mM): 150 NaCl, 10 KCl, […], 3 MgCl2, 1 CaCl2, 10 HEPES, pH 7.4. Patch pipettes were filled with an electrode solution of composition (in mM): 160 KCl, 0.5 MgCl2, 10 HEPES, 1 EGTA, pH 7.4 with KOH.
Compounds were dissolved in DMSO (100%) and made up in the external bather at a concentration of 1 μM. All experiments were conducted at room temperature (22-24° C.).
A cell suspension (10 ml), with a density of 100,000 cells/ml, was aliquoted into a 15 ml centrifuge tube and transferred to an incubator (37° C., 5% CO2) for approximately one hour before use. Following 60 min incubation, a tube was taken and centrifuged at 1000 rpm for 4 mins at room temperature. 9.5 ml supernatant was thene discarded, leaving a cell pellet at the bottom of the tube. The pellet was then resuspended using 100 μl of cold (4° C.), filtered (0.22 μm), 0.2% BSA/bather solution (0.02 g BSA/10 ml bather). The bottom of the tube was manually agitated gently until the solution became cloudy with cells. The 100 μl cell resuspension solution was then stored on the bench at 4° C. (using a Peltier-based temperature control device) until used.
A length of capillary glass (1B150F-4, WPI) was dipped into the cell suspension solution, such that ˜3 cm column of fluid was taken up by capillary action. An Ag/AgCl wire was dropped into the non-dipped end of the capillary also. The outside of the solution-filled end of the capillary was then dried and the capillary was loaded into the AutoPatch™.
Borosilicate glass patch pipettes (from 1.5 mm OD, thin-walled filamented, GC150-TF capillary glass, Harvard) were pulled using a DMZ pipette puller (Zeitz Instruments), and were back-filled using the internal pipette solution, being careful that no bubbles remain at the tip or in the body of the pipette. Patch pipettes typically had resistances of 2.3-3.5 MΩ. Once filled, the pipette tip and a proportion of the shaft (˜15 mm) were dipped into Sigmacote (Sigma). The recording pipette was then loaded into the AutoPatch™. Automated patch-clamping was initiated by the operator, but thereafter AutoPatch.exe continued the experiment providing that pre-set conditions and criteria were satisfied.
Whole cell patch-clamp recordings were made using the AutoPatch™ rig, which incorporated an EPC9 amplifier (HEKA, Germany) under control of Pulse software (v8.54, HEKA, Germany), a motion controller with 2 translators (Newport, UK), valve controller (VF1) and a c-level suction device all at room temperature (22-24° C.). This equipment was completely under the control of AutoPatch.exe and operator intervention was only made when there was a requirement to refill the drug reservoirs or to prevent the loss of a cell due to a technical error. Cells with an Rseries greater than 18MΩ were discounted from the experiment.
Qualification stages prior to perfusion and drug application ensured that the observed current met the criteria for the experiment. Only those cells with an IK>[…] were used for experiments. Cells were continuously perfused with external solution at a flow rate of 1.8-2 ml/minute. […] Online analysis of the hKv1.5 current during the application of compounds was performed by the AutoPatch™ software.
Electrophysiology voltage-step protocols and analysis of data was performed as follows. Data was sampled at 5 kHz, and filtered with a −3 dB bandwidth of 2.5 kHz. Cells were held at a voltage of −80 mV. Currents were evoked to a voltage step for 1000 ms in duration at 0 mV every 5 s. Currents were analysed using Pulsefit software (v8.54, HEKA, Germany), with the total charge measured during the whole of the voltage step. […]

T1 sequence (P22460 whole entry): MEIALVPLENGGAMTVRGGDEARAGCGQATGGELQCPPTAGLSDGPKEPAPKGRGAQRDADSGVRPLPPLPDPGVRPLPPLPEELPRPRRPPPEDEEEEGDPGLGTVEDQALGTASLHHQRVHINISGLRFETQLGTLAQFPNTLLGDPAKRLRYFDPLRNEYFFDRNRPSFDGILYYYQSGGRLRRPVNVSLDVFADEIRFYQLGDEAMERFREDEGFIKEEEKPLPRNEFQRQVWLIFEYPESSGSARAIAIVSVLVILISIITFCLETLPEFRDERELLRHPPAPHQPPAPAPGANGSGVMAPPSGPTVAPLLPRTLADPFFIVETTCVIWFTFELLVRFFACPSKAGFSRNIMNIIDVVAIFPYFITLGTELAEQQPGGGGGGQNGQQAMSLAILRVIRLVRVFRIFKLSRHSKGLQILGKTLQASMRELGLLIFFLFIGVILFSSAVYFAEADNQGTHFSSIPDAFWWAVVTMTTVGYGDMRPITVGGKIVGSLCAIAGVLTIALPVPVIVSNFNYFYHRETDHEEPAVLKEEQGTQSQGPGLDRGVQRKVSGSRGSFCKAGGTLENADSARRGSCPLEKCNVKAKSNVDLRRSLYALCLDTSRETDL

As for `COc1ccc(-c2coc3ncnc(NCc4ccccn4)c23)cc1OC` [Example 24, 5-(3,4-Dimethoxyphenyl)-N-(pyridin-2′-ylmethyl)furo[2,3-d]pyrimidin-4-amine], the “% Inhibition @1 (μM)” value on human Kv1.5 worked out at 15.81%. In the case of `c1ccc(-c2coc3ncnc(NCc4ccccn4)c23)cc1` [Example 22, 5-Phenyl-N-(pyridin-2′-ylmethyl)furo[2,3-d]pyrimidin-4-amine], the “% Inhibition @1 (μM)” value on human Kv1.5 is 54.00%. Turning to `OCC(CO)Nc1nc(NCc2ccccn2)c2c(-c3ccccc3)coc2n1` [Example 44, 2-{5-Phenyl-4-[(pyridin-2-ylmethyl)-amino]furo[2,3-d]pyrimidin-2-ylamino}-propane-1,3-diol], the inhibition at 1 µM against human Kv1.5 turned out to be 75%. Still for that read-out and setting: in the case of `CN(C)c1nc(NCc2ccco2)c2c(-c3ccccc3)coc2n1` [Example 48, N^4-Furan-2-ylmethyl-N^2,N^2-dimethyl-5-phenyl-furo[2,3-d]pyrimidine-2,4-diamine] it was 98%; in that of `OCCN(CCO)c1nc(NCc2ccccn2)c2c(-c3ccc(F)cc3)coc2n1` [Example 45, 2-((2-Hydroxyethyl)-{5-(4-fluorophenyl)-4-[(pyridine-2-ylmethyl)-amino]-furo[2,3-d]pyrimidin-2-yl}-amino)-ethanol], 42%. Regarding `Fc1ccc(-c2coc3ncnc(NCc4ccccn4)c23)cc1` [Example 21, 5-(4-Fluorophenyl)-N-(pyridin-2-ylmethyl)furo[2,3-d]pyrimidin-4-amine], the melting point fell in the range of 162 to 164 °C. For the same compound, testing at 1 µM at human Kv1.5 gave an inhibition of 39.8%.

`Cc1cccc(CNc2nc(N(C)C)nc3occ(-c4ccccc4)c23)n1` [Example 47, N^2,N^2-Dimethyl-N^4-(6-methyl-pyridin-2-ylmethyl)-5-phenyl-furo[2,3-d]pyrimidine-2,4-diamine] displayed a melting point of 52 to 54 °C. Further, the inhibition at 1 µM against human Kv1.5 turned out to be 98%. The compound `COCCOc1nc(NCc2ccccn2)c2c(-c3ccccc3)coc2n1` [Example 51, [2-(2-Methoxyethoxy)-5-phenyl-furo[2,3-d]pyrimidin-4-yl]-pyridin-2-ylmethylamine] gave a melting point of 97 to 99 °C. In addition, at human Kv1.5, the inhibition at 1 µM is 99%. The compound `COCCNc1nc(NCc2ccccn2)c2c(-c3ccccc3)coc2n1` [Example 41, N^2-(2-Methoxyethyl)-5-phenyl-N^4-pyridin-2-ylmethyl-furo[2,3-d]pyrimidine-2,4-diamine] gave a melting point of 96 to 98 °C. Further, the inhibition at 1 µM at human Kv1.5 came out at 99%. Consider `c1ccc(CNc2ncnc3occ(-c4ccc5c(c4)OCO5)c23)nc1` [Example 25, 5-(1,3-Benzodioxol-5′-yl)-N-(pyridin-2′-ylmethyl)furo[2,3-d]pyrimidin-4-amine], for which the “% Inhibition @1 (μM)” value on human Kv1.5 stood at 65.17%. Consider `Cc1oc2nc(N(C)C)nc(NCc3ccccn3)c2c1-c1ccc(F)cc1` [Example 50, 5-(4-Fluorophenyl)-6,N^2,N^2-trimethyl-N^4-pyridin-2-ylmethyl-furo[2,3-d]pyrimidine-2,4-diamine], for which the melting point is 107 to 109 °C. Moreover, 1 µM produced 32% inhibition on human Kv1.5. The compound `CN(C)c1nc(NCc2ccccn2)c2c(-c3ccccc3)coc2n1` [Example 46, N^2,N^2-Dimethyl-5-phenyl-N^4-pyridin-2-ylmethyl-furo[2,3-d]pyrimidine-2,4-diamine] gave a melting point of 108 to 110 °C. 1 µM produced 99% inhibition on human Kv1.5. With `Cc1oc2ncnc(NCc3ccccn3)c2c1-c1ccccc1` [Example 26, 6-Methyl-5-phenyl-N-(pyridin-2′-ylmethyl)furo[2,3-d]pyrimidin-4-amine], on human Kv1.5, the “% Inhibition @1 (μM)” value is 83.00%. Same read-out and setting: in the case of `Clc1ccc(-c2coc3ncnc(NCc4ccccn4)c23)cc1` [Example 23, 5-(4-Chlorophenyl)-N-(pyridin-2′-ylmethyl)furo[2,3-d]pyrimidin-4-amine] it was 83.80%; in that of `c1ccc(-c2coc3nc(N4CCOCC4)nc(NCc4ccccn4)c23)cc1` [Example 42, (2-Morpholin-4-yl-5-phenyl-furo[2,3-d]pyrimidin-4-yl)-puridin-2-ylmethyl-amine], 99.00%. Take `Cc1oc2nc(N(C)C)nc(NCc3ccccn3)c2c1-c1ccccc1` [Example 49, 6,N^2,N^2-Trimethyl-5-phenyl-N4-pyridin-2-ylmethyl-furo[2,3-d]pyrimidine-2,4-diamine]: on human Kv1.5, the inhibition at 1 µM amounted to 75%. Take `OCCN(CCO)c1nc(NCc2ccccn2)c2c(-c3ccccc3)coc2n1` [Example 43, 2-((2-Hydroxyethyl)-{5-Phenyl-4-[(pyridine-2-ylmethyl)-amino]-furo[2,3-d]pyrimidin-2-yl}-amino)-ethanol]: 1 µM produced 82% inhibition at human Kv1.5.
